18 molecules from ChEMBL document CHEMBL4834404, “Template-Hopping Approach Leads to Potent, Selective, and Highly Soluble Bromo and Extraterminal Domain (BET) Second Bromodomain (BD2) Inhibitors” (J Med Chem, 2021) can be followed below.

Data set [1] can be described thus: Solubility of the compound in pH 6.5 FaSSIF at 1 mg measured after 4 hrs by HPLC analysis. It counts as physicochemical.
Data set [2] is described as follows: Permeability of compound. It counts as ADME. Conditions: not told; read-out: permeability.
Data set [3] can be described thus: Solubility of compound by CLND assay. It counts as physicochemical.
For data set [4], the target named is Bromodomain-containing protein 4 (Homo sapiens, UniProt O60885, Y390A). The experiment in a line: Inhibition of 6His-Thr-BRD4 (1 to 477 residues) BD2 domain Y390A mutant (unknown origin) incubated for 30 mins by TR-FRET assay. In general terms: In TR-FRET formats the signal depends on donor and acceptor labels being close together.
Data set [5] is filed under the species Homo sapiens. The experiment in a line: Selectivity index, ratio of pIC50 of BRD4 BD1 (unknown origin) to pIC50 of BRD4 BD2 (unknown origin).
Data set [6] addresses Bromodomain-containing protein 4 (Homo sapiens, UniProt O60885, Y97A). The experiment in a line: Inhibition of 6His-Thr-BRD4 (1 to 477 residues) BD1 Y97A mutant (unknown origin) incubated for 30 mins by TR-FRET assay.

In brackets after ≈: the same amount, converted by molar mass.

Usually solubility stands for the concentration that dissolves in the medium under given conditions. Low readings indicate little dissolved substance, high ones much dissolved substance. For orientation: solubility (kinetic) means solubility judged after dilution from a stock solution rather than from solid. A word on the IC50: it is the point on the concentration scale where inhibition reaches its midpoint.

As for `CCNC(=O)c1cc(Cc2ccccc2)nc(C(=O)NC)c1`, the solubility at 4 h in data set [1] stood at 310 µg/mL (≈ 1040 µM). The Papp in data set [2] turned out to be 39 ×10⁻⁶ cm/s. The molecule further yielded a solubility (kinetic) in data set [3] of no less than 102 µg/mL.

As to `CCNC(=O)c1ccc(O[C@H](C)c2ccccc2)c(-c2cn(C)nn2)c1`, the results for the IC50 in data set [4] and in data set [6] were 1580 nM and 39800 nM, respectively. In data set [5], the Ratio pIC50 was 25. The Papp in data set [2] worked out at 42 ×10⁻⁶ cm/s. The molecule further had a kinetic solubility in data set [3] of 119 µg/mL (≈ 340 µM).

Regarding `Cn1cc(-c2cc(C(=O)NCC[C@@H]3CNCCO3)cc(Cc3ccccc3)n2)nn1`, the values for the IC50 in data set [4] and in data set [6] were 31.6 nM and 12600 nM, respectively. Moreover, in data set [5], the Ratio pIC50 was determined as 400. Further, the Papp in data set [2] was 1.8 ×10⁻⁶ cm/s. In data set [3], this molecule showed a kinetic solubility of no less than 138 µg/mL.

For `Cn1cc(-c2cc(C(=O)NCC3CCOCC3)cc(Cc3ccccc3)n2)nn1`, the results for the IC50 in data set [4] and in data set [6] were 316 nM and greater than 50100 nM, respectively. Also, the Ratio pIC50 in data set [5] is greater than 160. Also, the Papp in data set [2] worked out at 22 ×10⁻⁶ cm/s. This molecule also returned a kinetic solubility in data set [3] of no less than 142 µg/mL.

In the case of `C[C@H](Oc1ccc(C(=O)NC2CCOCC2)cc1-c1cn(C)nn1)c1ccccn1`, the IC50 is 126 nM in data set [4] and 15800 nM in data set [6]. In addition, the Ratio pIC50 in data set [5] was found to be 100. In addition, the Papp in data set [2] stood at 5.9 ×10⁻⁶ cm/s. In data set [3], the solubility (kinetic) was no less than 194 µg/mL.

`CC(=O)Nc1c(F)cc(C(=O)N[C@H]2CC[C@H](O)CC2)cc1O[C@@H](C)c1ccccc1` [GSK046] yielded a solubility at 4 h in data set [1] of 996 µg/mL (≈ 2400 µM). Further, in data set [2], the Papp is 1.7 ×10⁻⁶ cm/s.

As to `CCNC(=O)c1cc(Cc2cccc(F)c2)nc(-c2cn(C)nn2)c1`, the IC50 is 251 nM in data set [4] and 15800 nM in data set [6]. In data set [5], the Ratio pIC50 was 65. Moreover, the Papp in data set [2] is 41 ×10⁻⁶ cm/s. In data set [3], this molecule showed a kinetic solubility of 73 µg/mL (≈ 215 µM).

In the case of `CCNC(=O)c1ccc(OCc2ccc(OC)cc2)c(-c2cn(C)nn2)c1`, the IC50 in data set [4] is 316 nM; in data set [6], 20000 nM. Besides, the Ratio pIC50 in data set [5] was found to be 65. Moreover, in data set [2], the Papp came to 39 ×10⁻⁶ cm/s. The kinetic solubility in data set [3] is no less than 142 µg/mL.

In the case of `CCNC(=O)c1ccc(OCCc2ccccc2)c(-c2cn(C)nn2)c1`, the IC50 was 2510 nM in data set [4] and greater than 50100 nM in data set [6]. Further, the Ratio pIC50 in data set [5] is greater than 20. In addition, in data set [2], the Papp is 49 ×10⁻⁶ cm/s. Besides, the solubility (kinetic) in data set [3] was found to be 95 µg/mL (≈ 271 µM).

Consider `CCNC(=O)c1ccc(OCc2ncccn2)c(-c2cn(C)nn2)c1`, for which the IC50 was 1580 nM in data set [4] and greater than 50100 nM in data set [6]. For the same molecule, the Ratio pIC50 in data set [5] was greater than 30. Besides, the Papp in data set [2] worked out at 3.7 ×10⁻⁶ cm/s. In data set [3], this molecule registered a solubility (kinetic) of no less than 103 µg/mL.

Turning to `C[C@H](Oc1ccc(C(=O)NCCC[C@@]2(F)CCCNC2)cc1-c1cn(C)nn1)c1ccccn1`, the IC50 is 10 nM in data set [4] and 3980 nM in data set [6]. The Ratio pIC50 in data set [5] amounted to 400. Besides, the Papp in data set [2] was 0.53 ×10⁻⁶ cm/s. Also, in data set [3], the solubility (kinetic) was no less than 193 µg/mL.

`Cn1cc(-c2cc(C(=O)N[C@H]3[C@@H]4COC[C@@H]43)cc(Cc3ccccc3)n2)nn1`: the values for the IC50 in data set [4] and in data set [6] were 50.1 nM and 5010 nM, respectively. For the same molecule, the Ratio pIC50 in data set [5] was found to be 100. Further, in data set [2], the Papp stood at 24 ×10⁻⁶ cm/s. The molecule further yielded a solubility (kinetic) in data set [3] of no less than 145 µg/mL.

With `CCNC(=O)c1cc(Cc2cccc(OC)c2)nc(-c2cn(C)nn2)c1`, the IC50 in data set [4] is 631 nM; in data set [6], greater than 50100 nM. Further, the Ratio pIC50 in data set [5] was greater than 80. For the same molecule, the Papp in data set [2] was 47 ×10⁻⁶ cm/s. In data set [3], this molecule yielded a kinetic solubility of no less than 45 µg/mL.

In the case of `CCNC(=O)c1cc(Cc2ccccc2OC)nc(-c2cn(C)nn2)c1`, the IC50 in data set [4] is 200 nM; in data set [6], 39800 nM. The Ratio pIC50 in data set [5] is 200. The Papp in data set [2] was found to be 37 ×10⁻⁶ cm/s. This molecule also returned a solubility (kinetic) in data set [3] of 62 µg/mL (≈ 176 µM).

As to `Cn1cc(-c2cc(C(N)=O)cc(Cc3ccccc3)n2)nn1`, the IC50 is 251 nM in data set [4] and 12600 nM in data set [6]. Besides, in data set [5], the Ratio pIC50 is 50. Moreover, the Papp in data set [2] was 14 ×10⁻⁶ cm/s. For the same molecule, the solubility (kinetic) in data set [3] was determined as 40 µg/mL (≈ 136 µM).

Consider `Cn1cc(-c2cc(C(=O)NCC[C@]3(F)CCCNC3)cc(Cc3ccccc3)n2)nn1`, for which the results for the IC50 in data set [4] and in data set [6] were 25.1 nM and 6310 nM, respectively. For the same molecule, the Ratio pIC50 in data set [5] was 250. For the same molecule, the Papp in data set [2] was 1.9 ×10⁻⁶ cm/s. Moreover, in data set [3], the solubility (kinetic) was no less than 181 µg/mL.

As to `CCNC(=O)c1ccc(OCc2ccccc2OC)c(-c2cn(C)nn2)c1`, the IC50 in data set [4] was 126 nM; in data set [6], 20000 nM. Also, the Ratio pIC50 in data set [5] was determined as 160. Also, the Papp in data set [2] worked out at 48 ×10⁻⁶ cm/s. This molecule also showed a kinetic solubility in data set [3] of no less than 162 µg/mL.

As to `C[C@H](Oc1ccc(C(=O)N[C@H]2CC[C@H](O)CC2)cc1-c1cn(C)nn1)c1ccccn1`, the IC50 in data set [4] is 398 nM; in data set [6], 7940 nM. In addition, the Ratio pIC50 in data set [5] was determined as 20. Moreover, the Papp in data set [2] was 1.3 ×10⁻⁶ cm/s. In data set [3], this molecule registered a solubility (kinetic) of no less than 188 µg/mL.
